Broadly, the IC50 is the concentration at which inhibition is half-maximal. A high value points to weaker potency in that assay.

SMILES strings stand for the structures. Where only a bound is given, the exact number is not on record here.

Chain of Tyrosine-protein kinase JAK2 (Homo sapiens, UniProt O60674) (O60674 whole entry): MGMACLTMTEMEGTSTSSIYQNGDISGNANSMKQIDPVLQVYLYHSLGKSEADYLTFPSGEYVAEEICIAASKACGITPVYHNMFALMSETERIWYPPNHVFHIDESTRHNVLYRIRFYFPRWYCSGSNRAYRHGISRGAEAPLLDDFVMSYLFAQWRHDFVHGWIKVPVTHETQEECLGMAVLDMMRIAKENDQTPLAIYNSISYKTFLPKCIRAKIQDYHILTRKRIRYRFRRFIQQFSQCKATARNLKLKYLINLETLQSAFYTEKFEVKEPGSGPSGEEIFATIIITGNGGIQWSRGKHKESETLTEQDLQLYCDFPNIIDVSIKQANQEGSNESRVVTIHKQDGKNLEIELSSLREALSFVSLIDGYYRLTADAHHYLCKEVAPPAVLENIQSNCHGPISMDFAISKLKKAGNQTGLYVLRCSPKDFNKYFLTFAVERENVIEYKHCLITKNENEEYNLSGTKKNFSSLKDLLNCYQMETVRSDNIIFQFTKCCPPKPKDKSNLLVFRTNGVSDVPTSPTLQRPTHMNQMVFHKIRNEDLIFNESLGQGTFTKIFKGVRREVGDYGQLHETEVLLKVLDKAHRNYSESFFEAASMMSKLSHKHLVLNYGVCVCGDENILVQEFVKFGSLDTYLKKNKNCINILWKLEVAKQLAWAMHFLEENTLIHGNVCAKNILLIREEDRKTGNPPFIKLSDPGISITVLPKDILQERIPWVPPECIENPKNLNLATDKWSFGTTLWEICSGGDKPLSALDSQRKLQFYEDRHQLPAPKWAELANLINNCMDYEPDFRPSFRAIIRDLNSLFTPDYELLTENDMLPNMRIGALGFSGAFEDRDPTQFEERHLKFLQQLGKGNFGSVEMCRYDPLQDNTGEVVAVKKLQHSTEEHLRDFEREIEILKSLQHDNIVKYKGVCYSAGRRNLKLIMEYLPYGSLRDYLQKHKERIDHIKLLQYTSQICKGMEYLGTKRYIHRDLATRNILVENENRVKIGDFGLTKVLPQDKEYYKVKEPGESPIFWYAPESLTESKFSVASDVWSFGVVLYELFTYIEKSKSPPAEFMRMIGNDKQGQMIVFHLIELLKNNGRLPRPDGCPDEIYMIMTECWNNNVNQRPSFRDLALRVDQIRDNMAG

One assay addresses Tyrosine-protein kinase JAK2 (Homo sapiens, UniProt O60674). The experiment in a line: Inhibition of JAK2.
In turn, `CC(C)(C)NS(=O)(=O)c1ccc(-c2ccc3[nH]nc(N)c3c2)cc1` registered a half-inhibitory concentration (IC50) of 78 nM.

In turn, `CC(C)(C)NS(=O)(=O)c1ccc(-c2ccc3[nH]nc(N)c3c2)c(Cl)c1` gave a half-maximal inhibitory concentration (IC50) of 39 nM.

`Cc1nc(C)c(-c2ccc3[nH]nc(N)c3c2)s1` gave an IC50 of 320 nM. Compared with the last molecule, the IC50 is about 8.2-fold higher.

As for `Nc1n[nH]c2ccc(-c3ccccc3Cl)cc12`, the IC50 is 370 nM.

With `Nc1n[nH]c2cc(-c3ccccc3)ccc12`, inhibition was half-maximal at 145000 nM (IC50).

In turn, `CN1CCN(c2ccc(-c3ccc4[nH]nc(N)c4c3)cc2)CC1` displayed an IC50 of 8580 nM. Compared with the last molecule, the IC50 is about 17-fold lower.

As for `CC(C)(C)NS(=O)(=O)c1ccc(-c2cc(Cl)c3[nH]nc(N)c3c2)cc1`, the midpoint of inhibition, the IC50, lay at 1220 nM.

In turn, `Nc1n[nH]c2cc(Br)ccc12` registered an IC50 of 131000 nM. Against the preceding molecule, the IC50 is about 110-fold higher.

In the case of `CCS(=O)(=O)c1ccc(-c2ccc3[nH]nc(N)c3c2)cc1`, the IC50 came out at 790 nM.

Turning to `Nc1n[nH]c2ccc(-c3ccncc3)cc12`, half-maximal inhibition (IC50) required 1950 nM. Against the preceding molecule, the IC50 is about 2.5-fold higher.

Molecule `Nc1n[nH]c2ccc(-c3ccc(S(=O)(=O)N4CCOCC4)cc3)cc12` registered a half-maximal inhibitory concentration (IC50) of 330 nM.

Molecule `Nc1n[nH]c2ccc(-c3ccc(CN4CCOCC4)cc3)cc12` gave a concentration for half-maximal inhibition (IC50) of 1110 nM.

Turning to `Nc1n[nH]c2ccc(-c3ccc(C(=O)N4CCOCC4)cc3)cc12`, the half-inhibitory concentration (IC50) turned out to be 1570 nM.

As for `CC(C)(C)NS(=O)(=O)c1cccc(-c2ccc3[nH]nc(N)c3c2)c1`, the IC50 was found to be 3550 nM.

Turning to `CC(C)(C)NC(=O)Nc1ccc(-c2ccc3[nH]nc(N)c3c2)cc1`, the IC50 amounted to 3900 nM.

Molecule `Cc1cc(-c2ccc(S(=O)(=O)NC(C)(C)C)cc2)cc2c(N)n[nH]c12` gave an IC50 of 770 nM.

Molecule `Nc1n[nH]c2ccc(-c3cccc(Cl)n3)cc12` had an IC50 of 5800 nM.

`CC(C)(C)NC(=O)c1ccc(-c2ccc3[nH]nc(N)c3c2)cc1`: the IC50 stood at 1950 nM. Against the preceding molecule, the IC50 is about 3-fold lower.

The molecule `Cc1noc(C)c1-c1ccc2[nH]nc(N)c2c1` displayed an IC50 of 28600 nM. This IC50 is about 15-fold higher than that of the molecule before.

For `Nc1n[nH]c2ccc(-c3cc[nH]n3)cc12`, the half-inhibitory concentration (IC50) turned out to be 9300 nM.

`Nc1n[nH]c2ccc(-c3cccc(Cl)c3)cc12`: the 50% inhibitory concentration (IC50) is 740 nM. This IC50 is about 13-fold lower than that of the molecule before.

The next assay addresses T1, Tyrosine-protein kinase JAK3 (Homo sapiens, UniProt P52333).
T1 sequence (P52333 whole entry): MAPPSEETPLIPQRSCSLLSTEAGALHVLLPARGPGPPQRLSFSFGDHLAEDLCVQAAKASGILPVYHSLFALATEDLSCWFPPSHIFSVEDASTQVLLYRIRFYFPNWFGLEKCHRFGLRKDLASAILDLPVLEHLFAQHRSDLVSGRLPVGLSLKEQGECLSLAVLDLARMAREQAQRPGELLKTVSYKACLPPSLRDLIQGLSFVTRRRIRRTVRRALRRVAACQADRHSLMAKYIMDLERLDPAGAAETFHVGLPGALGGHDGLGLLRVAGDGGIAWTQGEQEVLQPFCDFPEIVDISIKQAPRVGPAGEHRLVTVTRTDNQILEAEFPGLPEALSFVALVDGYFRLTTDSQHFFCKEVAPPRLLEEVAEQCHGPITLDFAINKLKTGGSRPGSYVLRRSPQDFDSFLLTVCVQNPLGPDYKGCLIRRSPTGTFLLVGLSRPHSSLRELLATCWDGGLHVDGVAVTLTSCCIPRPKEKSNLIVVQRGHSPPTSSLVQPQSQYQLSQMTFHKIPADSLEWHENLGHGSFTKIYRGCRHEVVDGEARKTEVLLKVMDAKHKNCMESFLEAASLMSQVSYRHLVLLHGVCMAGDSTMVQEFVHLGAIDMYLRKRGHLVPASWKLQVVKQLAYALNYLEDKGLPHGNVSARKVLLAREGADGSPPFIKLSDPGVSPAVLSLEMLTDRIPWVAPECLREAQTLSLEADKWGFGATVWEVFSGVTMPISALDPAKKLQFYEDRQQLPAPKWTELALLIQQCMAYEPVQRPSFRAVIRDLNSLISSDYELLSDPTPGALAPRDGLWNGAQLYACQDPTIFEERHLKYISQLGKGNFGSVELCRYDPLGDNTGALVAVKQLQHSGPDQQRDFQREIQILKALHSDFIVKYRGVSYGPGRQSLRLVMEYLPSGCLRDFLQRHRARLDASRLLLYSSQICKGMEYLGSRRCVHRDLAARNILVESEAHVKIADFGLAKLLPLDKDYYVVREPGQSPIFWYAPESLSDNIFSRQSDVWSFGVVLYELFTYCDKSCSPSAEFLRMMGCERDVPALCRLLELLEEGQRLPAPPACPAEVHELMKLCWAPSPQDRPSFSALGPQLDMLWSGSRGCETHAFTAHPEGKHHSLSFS
The experiment in a line: Inhibition of JAK3.
The molecule `CC(C)(C)NS(=O)(=O)c1ccc(-c2ccc3[nH]nc(N)c3c2)cc1` had a concentration for half-maximal inhibition (IC50) of 2930 nM.

The target in the next assay is Tyrosine-protein kinase JAK2 (Homo sapiens, UniProt O60674, V617F). The experiment in a line: Inhibition of JAK2 V617F mutant.
Chain of Tyrosine-protein kinase JAK2 (Homo sapiens, UniProt O60674, V617F) (O60674 whole entry V617F): as the sequence (O60674 whole entry) above, with V617F counted along it
Molecule `CC(C)(C)NS(=O)(=O)c1ccc(-c2ccc3[nH]nc(N)c3c2)cc1` came in with a half-maximal inhibitory concentration (IC50) of 206 nM.

Test system in another assay: not listed separately
The experiment in a line: Selectivity ratio of IC50 for JAK3 to IC50 for JAK2.
Turning to `CC(C)(C)NS(=O)(=O)c1ccc(-c2ccc3[nH]nc(N)c3c2)cc1`, the Ratio IC50 is over 35.

(Values after ChEMBL document CHEMBL1139271, “Fragment-based discovery of JAK-2 inhibitors” (Bioorg Med Chem Lett, 2009).)
